{"source": "patent US12570694B2", "about": "“Peptides and pharmaceutical, nutraceutical or veterinary compositions for hair loss prevention and/or treatment” (VYTRUS BIOTECH, S.L., priority 2016, dated 2026)", "key": {"[1]": {"system": "insulin growth factor 1 (IGF-1)", "assay": "IGF-1 levels in secretomas of treated HFDPC", "assay_type": "cell-based, human", "conditions": "24 h and 48 h after treatment, data not shown", "protocol": "Secretomas (supernatants that could be recovered from the HFDPC cultures challenged with the tested materials of Table 1) were analysed for detecting the presence and levels of animal cell growth factors and of microRNAs associated with hair growth in dermal papilla. […] Similar results (at 24 and 48 h) were observed when analysing the levels of fibroblast growth factor 7 (FGF-7). Both growth factors are associated with the promotion of hair growth."}, "[2]": {"system": "males and females with hair-loss problems", "assay": "In vivo test: combing test (number of hair lost during combing) in volunteers", "parameters": "species or system human", "protocol": "(§1) Curcuma longa cell-free supernatant prepared as indicated in Example 2, as well as the peptide of SEQ ID NO: 6 in the PBS buffered fortifying solution 2× disclosed in Example 1 were tested in males and females (n=60, from 18 to 60 years old) with hair-loss problems. There were excluded those volunteers that received a capillary treatment three months before the assay, volunteers with cutanic pathologies at scalp (psoriasis, dermatitis, etc.) and allergy to compounds in the formulations.\n(§2) Tested compounds were daily applied.\n(§3) At time 0 (T0) there were taken scalp pictures (frontal and occipital parts), trichograms for determining the hair phase cycle (telogen or anagen phase), the combing test (number of hair lost during combing), and capillary density by microphotography with Trichoscan®.\n(§4) At t=45 days and t=90 days, there were performed the combing test and the density tests (Trichoscan®)\n(§5) At t=150 days again as in t=0.\n(§6) Volunteers were separated in three groups. Group 1 receiving SEQ ID NO: 6 in the PBS buffered fortifying solution 2× disclosed in Example 1; Group 2 receiving Curcuma longa cell-free supernatant prepared as indicated in Example 2, and Group 3 the placebo.\nIn particular, this table includes the average values determined for combing test (number of hair lost during combing). From the combing test results at t=0, t=45 and t=90 the percentage of reduction of hair loss is calculated contrasting values of t=0 with the values at t=45 and at t=90."}, "[3]": {"system": "human dermal fibroblasts (HDF)", "assay": "In vitro proliferation of human dermal fibroblasts (BrdU incorporation)", "assay_type": "cell-based", "conditions": "basal control = 100%", "protocol": "In order to further test the effects of the peptides of the invention in an additional setting, a proliferation assay was conducted onto human dermal fibroblasts (HDF).\nNormal Human Dermal Fibroblasts (HDF) were obtained from foreskin samples, surpluses from surgery of young donors (0-3 years old) and stablished by using the standard method of explants growth and enzymic dissociation of proliferating cells. Cells were propagated and grown in Growth Medium (GM): Dulbecco's 1 g/L glucose medium, supplemented with 10% foetal bovine serum (FBS, PAA); 2 mM L-glutamine (Lonza); and antibiotics (100 μg/ml Penicillin and 100 U/ml of Streptomycin, Lonza). For routine subcultivation and propagation of the primary culture, cells were washed twice with PBS ([…] buffered saline, pH 7.4), harvested with trypsin—EDTA (Gibco) and counted in Neubauer chamber before its seeding in a new cell culture flask (Falcon, 75 cm2).\nTest products were prepared at the defined final concentrations by its dilution in Maintenance Medium (Dulbecco's 1 g/L glucose medium, supplemented with 1% foetal bovine serum (FBS, PAA); 2 mM L-glutamine (Lonza); and antibiotics (100 μg/ml Penicillin and 100 U/ml of Streptomycin, Lonza), just before each application.\nHFD proliferation was assessed determining the proliferation index (%). Cell DNA replication was quantified by means of incorporated bromodeoxiuridine (BrdU) into DNA of treated cells. […] Cells being divided incorporated BrdU that is further detected by means of antibodies and immunocytochemistry detection. […]\nData are depicted in FIG. 6 and FIG. 7, wherein it is shown the proliferation index (%) of HDF, calculated as the percentage of growing in relation to the basal control (non-treated HDF) which is accorded a 100% value of proliferation index. […]\nData are depicted in FIG. 16, wherein it is shown the proliferation index (%) of HDF, calculated as the percentage of growing in relation to the basal control (non-treated HDF) which is accorded a 100% value of proliferation index."}, "[4]": {"system": "males and females with hair-loss problems", "assay": "In vivo test: capillary (hair) density by Trichoscan microphotography in volunteers", "parameters": "species or system human", "protocol": "as §1, §2, §3, §4, §5, §6\nData are depicted in next Table 2 for capillary density. This table includes the average values determined of capillary density increase after evaluating in each volunteer the number of hairs in a 0.25 cm^2 are, capillary density at t=0 and t=90, and said increase in relation to t=0 value"}, "miRNA-31": {"system": "miRNA-31", "assay": "miRNA-31 expression in secretomes of treated HFDPC", "assay_type": "cell-based, human", "conditions": "in relation to the controls, FIG. 5(A),(C)", "text": "FIG. 5, related with Assay 1, is a graph showing the expression levels of miRNA-22 (FIG. 5(B)) and miRNA-31 (FIGS. 5(A) and (C)) in secretomas from HFDPC treated with either the peptide of SEQ ID NO: 6 or the cell-free supernatants of Curcuma longa.\nFrom these secretomes of HFDPC, also the levels of the microRNAs miRNA-31 and miRNA-22 were detected (FIG. 5)."}, "[5]": {"conditions": "group mean, combing test, minimal and maximal values not considered"}, "[6]": {"conditions": "individual volunteers, negative = fewer hairs lost"}, "[7]": {"conditions": "group mean, minimal and maximal values not considered"}}, "note": "Values joined by “and” are separate entries in the source; they are usually repeats but may differ in a detail not shown here. Identical values can stand only once.", "data": [{"substance": "CH3—C(O)—YIYT-NH2 (Ac-YIYT-NH2) [SEQ ID NO: 6, in vivo: dissolved 0.025% w/w in PBS buffered fortifying solution 2×]", "values": [{"measurement": "levels of insulin growth factor 1 (IGF-1)", "setting": "[1]", "value": "higher levels were meaningful"}, {"measurement": "reduction of the % of hair loss (in words)", "setting": "[2]; T45, T90 and T150 compared with T0", "value": "meaningful reduction of the % of hair loss"}, {"measurement": "% REDUCTION OF HAIR LOSS T0 vs. T150, Mean", "setting": "[2]; [5]", "value": 68.15, "unit": "%"}, {"measurement": "% hair-loss reduction t = 0 vs t = 45, mean", "setting": "[2]; [5]", "value": 40.48, "unit": "%"}, {"measurement": "% hair-loss reduction t = 0 vs t = 90, mean", "setting": "[2]; [5]", "value": 39.72, "unit": "%"}, {"measurement": "COMBING TEST T45", "setting": "[2]; individual volunteers, number of hair lost during combing, day 45", "value": "7 and 54 and 23 and 13 and 88 and 184 and 34 and 58 and 60 and 62 and 50 and 10 and 31 and 28 and 101 and 66 and 24 and 14 and 46 and 92"}, {"measurement": "COMBING TEST T90", "setting": "[2]; individual volunteers, number of hair lost during combing, day 90", "value": "6 and 88 and 28 (2×) and 36 and 154 and 60 and 50 and 61 and 84 and 27 and 12 and 45 and 118 and 91 and 23 and 22 and 59 and 62"}, {"measurement": "COMBING TEST T150", "setting": "[2]; individual volunteers, number of hair lost during combing, day 150", "value": "5 and 13 (2×) and 19 (2×) and 22 and 24 and 18 and 12 and 20 (3×) and 23 and 29 and 95 and 42 and 167 and 16 and 36"}, {"measurement": "% REDUCTION OF HAIR LOSS T0 VS. T45", "setting": "[2]; [6]", "value": "−86.27% and −55.74% and −46.51% and −69.05% and 72.55% and 183.08(*) % and −43.33% and −44.23% and −47.83% and −78.32% and −30.56% and −98.13(*) % and −36.73% and −68.54% and −31.29% and −67.00% and −22.58% and −64.10% and −42.50% and 33.33%"}, {"measurement": "% REDUCTION OF HAIR LOSS T0 VS. T90", "setting": "[2]; [6]", "value": "−88.24% and −27.87% and −34.88% and −33.33% and −29.41% and 136.92(*) % and 0.00% and −51.92% and −46.96% and −70.63% and −62.50% and −97.76(*) % and −49.44% and −19.73% and −54.50% and −25.81% and −43.59% and −26.25% and −10.14%"}, {"measurement": "% REDUCTION OF HAIR LOSS T0 vs. T150", "setting": "[2]; [6]", "value": "−90.20% and −89.34% and −69.77% and −54.76% and −56.86% and −63.08% and −70.00% and −88.46% and −82.61% and −91.96(*) % and −59.72% and −82.24% and −78.65% and −71.43% and −16.50% and −35.48(*) % and −58.97% and −55.00% and −71.01%"}, {"measurement": "proliferation index of HDF", "setting": "[3]; Assay 5, FIG. 16, peptide, nutritive solution, or both in combination", "value": "can promote cell proliferation"}, {"measurement": "proliferation index of HDF", "setting": "[3]; FIGS. 6 and 7, 4Aa at 25, 12.5, 1.25 μg/ml, 5Aa at 1.25, 0.63, 0.25 μg/ml", "value": "can promote cell proliferation of HDF"}, {"measurement": "new hairs appeared in the whole hair", "setting": "[4]; concluded from the mean hair density increase at T150", "value": "≤ 14000", "unit": "hairs"}, {"measurement": "Capillary density increase", "setting": "[4]; group average, t=90 in relation to t=0, daily application (Table 4)", "value": 14.66, "unit": "%"}, {"measurement": "HAIR DENSITY INCREASE T90, Mean", "setting": "[4]; [7]", "value": 14.03, "unit": "%"}, {"measurement": "HAIR DENSITY INCREASE T150, Mean", "setting": "[4]; [7]", "value": 19.27, "unit": "%"}, {"measurement": "HAIR DENSITY INCREASE T90", "setting": "[4]; individual volunteers, T90 vs T0", "value": "16.66% and 6.06% and 40.91% and 11.11% (2×) and 22.73% and 34.37% and 5.40% and 17.15% and 7.14% and 0.00% (3×) and −9.62%(*) and 70.01%(*) and 4.76% and 39.99% and 9.67% and 11.54%"}, {"measurement": "HAIR DENSITY INCREASE T150", "setting": "[4]; individual volunteers, T150 vs T0", "value": "24.99% and 6.06% and 36.36% and 14.63% and 18.18% and 21.87% and −5.41% and 2.86% and 35.71% and 0.00% (2×) and 14.81% and −7.69%(*) and 60.01% and 38.09% and 7.40% and 73.32%(*) and 9.67% and 42.31%"}, {"measurement": "HAIR DENSITY 1/cm2 T90", "setting": "[4]; individual volunteers, T90 days", "value": "111.38 1/cm2 and 139.22 1/cm2 and 123.31 1/cm2 (2×) and 119.33 1/cm2 (3×) and 107.4 1/cm2 (2×) and 171.04 1/cm2 and 155.13 1/cm2 and 163.09 1/cm2 and 115.35 1/cm2 (2×) and 186.95 1/cm2 and 135.24 1/cm2 (2×) and 87.51 1/cm2 and 83.53 1/cm2"}, {"measurement": "Nr HAIRS/0.25 cm2 T90", "setting": "[4]; individual volunteers, T90 days, daily application", "value": "28 HAIRS/0.25 cm2 and 35 HAIRS/0.25 cm2 and 31 HAIRS/0.25 cm2 (2×) and 30 HAIRS/0.25 cm2 (3×) and 27 HAIRS/0.25 cm2 (2×) and 43 HAIRS/0.25 cm2 and 39 HAIRS/0.25 cm2 and 41 HAIRS/0.25 cm2 and 29 HAIRS/0.25 cm2 (2×) and 47 HAIRS/0.25 cm2 and 34 HAIRS/0.25 cm2 (2×) and 22 HAIRS/0.25 cm2 and 21 HAIRS/0.25 cm2"}, {"measurement": "HAIR DENSITY 1/cm2 T150", "setting": "[4]; individual volunteers, T150 days", "value": "119.33 1/cm2 (2×) and 139.22 1/cm2 (2×) and 123.11 1/cm2 and 103.42 1/cm2 (2×) and 155.13 1/cm2 and 143.2 1/cm2 and 151.15 1/cm2 and 115.35 1/cm2 (3×) and 123.31 1/cm2 (2×) and 190.93 1/cm2 and 127.29 1/cm2 and 135.24 1/cm2 and 147.18 1/cm2"}, {"measurement": "Nr HAIRS/0.25 cm2 T150", "setting": "[4]; individual volunteers, T150 days, daily application", "value": "30 HAIRS/0.25 cm2 (2×) and 35 HAIRS/0.25 cm2 (2×) and 31 HAIRS/0.25 cm2 (3×) and 26 HAIRS/0.25 cm2 (2×) and 39 HAIRS/0.25 cm2 and 36 HAIRS/0.25 cm2 and 38 HAIRS/0.25 cm2 and 29 HAIRS/0.25 cm2 (3×) and 48 HAIRS/0.25 cm2 and 32 HAIRS/0.25 cm2 and 34 HAIRS/0.25 cm2 and 37 HAIRS/0.25 cm2"}, {"measurement": "expression index of miRNA-31", "setting": "miRNA-31", "value": "increase of the expression index of miRNA-31"}]}]}
